Earlier results as cited in US20080241290A1, “Sinus relief composition and method of producing the same” (priority 2007, published 2008).

Details: pure capsaicinoid, Scoville scale

COc1cc(CNC(=O)CCCC/C=C/C(C)C)ccc1O [capsaicin]
pungency (Scoville heat units): 15,000,000-16,000,000 Scoville units
